The record followed here is patent US6562978B1, “Cyclic amine compounds as CCR5 antagonists” (Takeda Chemical Industries, Ltd., priority 1999, dated 2003).

The assay concerns HIV-1 Ba-L. Nature of the assay: Inhibitory effect on HIV-1 infection to MAGI-CCR5 cell (blue cell count, β-galactosidase). The format is cell-based. As to conditions: Human immunodeficiency virus 1, BAL, 48 h; final concentration of Test Compound 0.032 μM; MAGI-CCR5 cells; 300PFU HIV-1 Ba-L; 37° C. for 2 days.

Counter-ions that a name gives are not always drawn.

Method: By using said transformant MAGI-CCR5, degree of HIV-1 infection was calculated from β-galactosidase activity (blue color due to decomposition of 5-bromo-4-chloro-3-indolyl-β-D-galactopyranoside). Specifically, MAGI-CCR5 cells were suspended in DMEM medium containing 10% serum to prepare 5×10^4 cells/ml suspension. To each well of 96 well plate was inoculated 200 μM of the suspension, and the cells were cultivated at 37° C. overnight. The medium was removed by means of suction, and to the residue was added 100 μM of the above medium containing 0.064 μM of Test Compound and 100 μM of the above medium containing 300PFU of HIV-1 Ba-L cells. The final concentration of Test Compound was 0.032 μM. The cells were cultivated at 37° C. for 2 days. The medium was removed by means of suction. To the residue was added 200 μM of cell fixative (PBS containing 1% formaldehyde and 0.2% glutaraldehyde), and the mixture was allowed to stand at room temperature for 5 minutes and washed twice with PBS. To the mixture was added 100 μl of staining solution (PBS containing 4 μM potassium ferrocyanide, 4 μM potassium ferricyanade, 2 μM MgCl2 and 0.4 mg/ml×-gal), and the mixture was allowed to stand at 37° C. for 50 minutes and washed twice with PBS. The number of blue cells was counted by microscope and defined as the number of cells infected with HIV-1.

In turn, `CC(=O)N1CCC(C(=O)N(CCCN2CCC(Cc3ccc(F)cc3)CC2)c2ccc(Cl)c(Cl)c2)CC1` [Example 468, 1-Acetyl-N-(3,4-dichlorophenyl)-N-{3-[4-(4-fluorobenzyl)-1-piperidinyl]propyl}-4-piperidinecarboxamide Hydrochloride] registered an inhibition at 0.032 µM of 97%. Compound `CC(=O)N1CCC(C(=O)N(CCCN2CCC(Sc3nc4ccccc4s3)CC2)c2cccc(Cl)c2)CC1` [Example 469, 1-Acetyl-N-(3-chlorophenyl)-N-[3-[4-(2-benzthiazolylthio)-1-piperidinyl]propyl]-4-piperidinecarboxamide Hydrochloride] registered an inhibition at 0.032 µM of 96%.

Broadly, the inhibition is the drop in the measured response relative to a control, in per cent. Low readings indicate a response near the control, high ones a response far below the control.
